pIC50: −log10 of the molar value.
Columns and labels:
[1] = tested on: Trypanosoma brucei rhodesiense; assay: Antiprotozoal activity against Trypanosoma brucei rhodesiense STIB900 trypomastigotes measured after 72 to 74 hrs; format: functional, organism-based
Trypanosoma cruzi = assay: Antiprotozoal activity against Trypanosoma cruzi Tulahuen C2C4 intracellular amastigotes measured after 96 hrs by inverted microscopy; format: functional, organism-based; conditions: Tulahuen C2C4, 96 h
Leishmania donovani = assay: Antileishmanial activity against axenically grown amastigotes Leishmania donovani MHOM-ET-67/L82 measured after 72 hrs by inverted microscopy; format: functional, organism-based; conditions: MHOM-ET-67/L82, 72 h
Plasmodium falciparum = assay: Antiplasmodial activity against Plasmodium falciparum NF54 intraerythrocytic forms measured after 72 hrs by 3H-hypoxanthine based liquid scintillation counting analysis; format: functional, organism-based
[2] = Cytotoxicity against rat myoblast L6 cells measured after 72 hrs by inverted microscopy; format: toxicity, cell-based
[3] = Selectivity index, ratio of IC50 for cytotoxicity against rat myoblast L6 cells to IC50 for antiprotozoal activity against Trypanosoma brucei rhodesiense STIB900 trypomastigotes; format: toxicity, cell-based; conditions: read-out: Selectivity Index
[4] = Selectivity index, ratio of IC50 for cytotoxicity against rat myoblast L6 cells to IC50 for antiprotozoal activity against Trypanosoma cruzi Tulahuen C2C4 intracellular amastigotes; format: toxicity, cell-based; conditions: read-out: Selectivity Index
[5] = Selectivity index, ratio of IC50 for cytotoxicity against rat myoblast L6 cells to IC50 for antileishmanial activity against axenically grown amastigotes Leishmania donovani MHOM-ET-67/L82; format: toxicity, cell-based; conditions: read-out: Selectivity Index
[6] = Selectivity index, ratio of IC50 for cytotoxicity against rat myoblast L6 cells to IC50 for antiplasmodial activity against Plasmodium falciparum NF54 intraerythrocytic forms; format: toxicity, cell-based; conditions: read-out: Selectivity Index

Row | SMILES | pIC50 [1] | pIC50 (Trypanosoma cruzi) | pIC50 (Leishmania donovani) | pIC50 (Plasmodium falciparum) | IC50 at 72 h [2] | selectivity ratio [3] | selectivity ratio [4] | selectivity ratio [5] | selectivity ratio [6]
1 | CC1=CC[C@]23CC[C@H]4C(C)(C)CCC[C@]45C[C@]24[C@@]1(O)C[C@H]1C(C)(C)OC(=C(C(C)C)C3=O)[C@@]14O5 | 5.00 | 5.08 | 5.22 | 7.10 | 6.9 µM | 0.7 | 0.8 | 1.1 | 80
2 | CC1=C2C[C@H]3C(C)(C)OC4=C(C(C)C)C(=O)[C@@]5(C=C1)CC[C@H]1C(C)(C)CCC[C@]16C[C@]25[C@@]43O6 | 4.23 | 5.15 | 4.84 | 7.52 | 26.3 µM | 0.4 | 3.6 | 1.9 | 843
3 | CC1=CC[C@]23CC[C@H]4C(C)(C)CCC[C@]45C[C@]24C1=C[C@H]1C(C)(C)OC(=C(C(C)C)C3=O)[C@@]14O5 | 4.49 | 4.81 | 4.57 | 6.05 | 23.9 µM | 0.7 | 1.5 | 0.9 | 26.8
4 | CC(C)C1=C2OC(C)(C)[C@@H]3CC4[C@H](C)[C@@H](O)C[C@@]5(CC[C@H]6C(C)(C)CCC[C@]67C[C@]45[C@@]23O7)C1=O (some centres undefined) | 4.59 | 4.48 | 4.39 | 5.59 | 136 µM | 5.3 | 4.1 | 3.3 | 53.1
5 | CC(C)C1=C2OC(C)(C)[C@@H]3CC4[C@@H](C)[C@H](O)C[C@@]5(CC[C@H]6C(C)(C)CCC[C@]67C[C@]45[C@@]23O7)C1=O (some centres undefined) | 4.41 | 4.72 | 5.00 | 5.29 | 36.7 µM | 0.9 | 1.9 | 3.7 | 7.1
6 | CC(C)C1=C2OC(C)(C)[C@@H]3CC4[C@H](C)[C@@H](OC(=O)CCC(=O)O)C[C@@]5(CC[C@H]6C(C)(C)CCC[C@]67C[C@]45[C@@]23O7)C1=O (some centres undefined) | 4.61 | 5.15 | 6.36 | 5.25 | 9.7 µM | 0.4 | 1.4 | 22 | 1.7
7 | O=C(Cn1ccnc1[N+](=O)[O-])NCc1ccccc1 [BENZNIDAZOLE] |  | 5.58 |  |  |  |  |  |  | 
8 | CC(C)C1=C2OC(C)(C)[C@@H]3CC4[C@@H](C)[C@H](B(F)F)C[C@@]5(CC[C@H]6C(C)(C)CCC[C@]67C[C@]45[C@@]23O7)C1=O (some centres undefined) | 4.61 | 4.92 | 5.32 | 6.10 | 35 µM | 1.4 | 2.9 | 7.3 | 43.8
